Laboratory results taken from ChEMBL document CHEMBL3751807, “Design of High-Affinity Stapled Peptides To Target the Repressor Activator Protein 1 (RAP1)/Telomeric Repeat-Binding Factor 2 (TRF2) Protein-Protein Interaction in the Shelterin Complex” (J Med Chem, 2016).

Columns and labels:
[1] = Solubility of compound in phosphate buffer at 15 uM; assay type: physicochemical
[2] = Solubility of compound in phosphate buffer at 100 uM; assay type: physicochemical
[3] = biological target: T1, Telomeric repeat-binding factor 2-interacting protein 1 (Homo sapiens, UniProt Q9NYB0); assay: Competitive binding to RAP1 (unknown origin) incubated for 1 hr by fluorescence polarization-based binding assay
T1 sequence (Q9NYB0 whole entry): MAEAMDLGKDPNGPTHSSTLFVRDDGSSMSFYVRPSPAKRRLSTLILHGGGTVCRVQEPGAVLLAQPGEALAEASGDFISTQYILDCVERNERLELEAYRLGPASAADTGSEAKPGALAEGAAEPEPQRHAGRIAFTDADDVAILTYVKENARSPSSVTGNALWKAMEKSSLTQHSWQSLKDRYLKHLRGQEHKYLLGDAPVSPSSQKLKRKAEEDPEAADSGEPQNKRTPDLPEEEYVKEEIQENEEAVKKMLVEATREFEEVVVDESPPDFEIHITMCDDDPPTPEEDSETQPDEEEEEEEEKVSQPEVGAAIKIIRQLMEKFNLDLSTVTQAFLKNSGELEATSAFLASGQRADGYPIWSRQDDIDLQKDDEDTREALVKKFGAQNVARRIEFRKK

Compound: C#CC[C@@H](NC(=O)[C@H](CCCCN)NC(=O)[C@H](Cc1ccccc1)NC(=O)[C@H](C)NC(=O)[C@H](CCCCN=[N+]=[N-])NC(=O)[C@H](CCCCN)NC(=O)[C@H](CC(C)C)NC(=O)[C@@H](NC(=O)[C@H](CCSC)NC(=O)[C@H](CCSC)NC(=O)CNC(=O)[C@@H](NC(=O)[C@@H](NC(=O)[C@@H](NC(C)=O)[C@@H](C)O)[C@@H](C)O)[C@@H](C)CC)[C@@H](C)O)C(=O)N[C@@H](CC(C)C)C(=O)N[C@@H](CO)C(N)=O
- solubility [1]: Insoluble

Compound: CC[C@@H](C)[C@H](NC(=O)[C@@H](NC(=O)[C@@H](NC(C)=O)[C@@H](C)O)[C@@H](C)O)C(=O)NCC(=O)N[C@@H](CCSC)C(=O)N[C@@H](CCSC)C(=O)N[C@H](C(=O)N[C@@H](CC(C)C)C(=O)N[C@@H](CCCCN)C(=O)N[C@@H]1CCCCn2cc(nn2)C[C@H](C(=O)N[C@@H](CC(C)C)C(=O)N[C@H](CO)C(N)=O)NC(=O)[C@@H](CCCCN)NC(=O)[C@@H](Cc2ccccc2)NC(=O)[C@H](C)NC1=O)[C@@H](C)O (stereo in doubt)
- solubility [2]: soluble

Compound: Ac-TTIGMKTLKAAFKT-NH2
- IC50 [3]: > 200 µM
